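These data come from cells grown in 96-well plates and exposed to compound for 48 hours at five concentrations. At the GI50, growth is halved. The concentration for full growth arrest is given as TGI.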
Key:
Assay in all cases: NCI anticancer screen, dose series, 48 h
[1] = tested on: HT29 colon
[2] = tested on: U251 CNS
[3] = tested on: SNB-19 CNS
[4] = tested on: UO-31 renal
[5] = tested on: SK-MEL-28 melanoma
[6] = tested on: CAKI-1 renal
[7] = tested on: HCT-15 colon
[8] = tested on: A498 renal
[9] = tested on: MDA-MB-435
[10] = tested on: UACC-257 melanoma
[11] = tested on: SW-620 colon
[12] = tested on: SF-268 CNS
[13] = tested on: LOX IMVI melanoma
[14] = tested on: BT-549 breast
[15] = tested on: SK-OV-3 ovarian
[16] = tested on: A549 NSCLC
[17] = tested on: OVCAR-8 ovarian
[18] = tested on: UACC-62 melanoma
[19] = tested on: K-562 leukemia
[20] = tested on: TK-10 renal
[21] = tested on: 786-0 renal
[22] = tested on: NCI-H226 lung
[23] = tested on: HOP-92 NSCLC
[24] = tested on: M14 melanoma
[25] = tested on: SK-MEL-5 melanoma
[26] = tested on: MCF7 breast
[27] = tested on: SF-539 CNS
[28] = tested on: ACHN renal
[29] = tested on: RXF 393 renal
[30] = tested on: DU-145 prostate
[31] = tested on: OVCAR-4 ovarian
[32] = tested on: OVCAR-3 ovarian
[33] = tested on: OVCAR-5 ovarian
[34] = tested on: RPMI-8226 leukemia
[35] = tested on: T-47D breast
[36] = tested on: COLO 205 colon
[37] = tested on: HOP-62 NSCLC
[38] = tested on: IGROV1 ovarian
[39] = tested on: KM12 colon
[40] = tested on: HCT-116 colon
[41] = tested on: SN12C renal
[42] = tested on: MOLT-4 leukemia
[43] = tested on: SK-MEL-2 melanoma
[44] = tested on: EKVX NSCLC
[45] = tested on: SNB-75 CNS
[46] = tested on: NCI-H522 lung
[47] = tested on: SF-295 CNS
[48] = tested on: HCC-2998 colon
[49] = tested on: NCI-H23 lung
[50] = tested on: NCI/ADR-RES ovarian
[51] = tested on: HS 578T breast
[52] = tested on: MDA-MB-231 breast
[53] = tested on: MALME-3M melanoma
[54] = tested on: NCI-H460 lung
[55] = tested on: PC-3 prostate
[56] = tested on: HL-60(TB) leukemia
[57] = tested on: CCRF-CEM leukemia

O=C(NCCCCOCC#Cc1ccccc1C#CCS(=O)(=O)c1ccccc1)c1cc2ccccc2[nH]1
GI50 [1]: 13.7 µM
TGI [1]: > 50 µM
GI50 [2]: 9.64 µM
TGI [2]: 22 µM
GI50 [3]: 15.1 µM
TGI [3]: > 50 µM
GI50 [4]: 4.05 µM
TGI [4]: 11.8 µM
GI50 [5]: 9.82 µM
TGI [5]: 26.7 µM
GI50 [6]: 14.9 µM
TGI [6]: > 38.2 µM
GI50 [7]: 7.21 µM
TGI [7]: 15.7 µM
GI50 [8]: 25.8 µM
TGI [8]: > 50 µM
GI50 [9]: 10.6 µM
TGI [9]: 30.3 µM
GI50 [10]: 22.4 µM
TGI [10]: > 50 µM
GI50 [11]: 11.5 µM
TGI [11]: > 45.5 µM
GI50 [12]: 12.4 µM
TGI [12]: > 43.1 µM
GI50 [13]: 1.58 µM
TGI [13]: 4.8 µM
GI50 [14]: 8.38 µM
TGI [14]: > 27.1 µM
GI50 [15]: 19.5 µM
TGI [15]: > 50 µM
GI50 [16]: 16.8 µM
TGI [16]: > 50 µM
GI50 [17]: 11.4 µM
TGI [17]: 48.9 µM
GI50 [18]: 8.29 µM
TGI [18]: 16.6 µM
GI50 [19]: 6.83 µM
TGI [19]: > 50 µM
GI50 [20]: 23.5 µM
TGI [20]: > 50 µM
GI50 [21]: 12.8 µM
TGI [21]: 34.8 µM
GI50 [22]: 9.85 µM
TGI [22]: 25 µM
GI50 [23]: 1.39 µM
TGI [23]: 15.7 µM
GI50 [24]: 12.1 µM
TGI [24]: 36.3 µM
GI50 [25]: 7.86 µM
TGI [25]: 16.3 µM
GI50 [26]: 8.91 µM
TGI [26]: > 26.1 µM
GI50 [27]: 12.1 µM
TGI [27]: 26.8 µM
GI50 [28]: 9.64 µM
TGI [28]: 22.9 µM
GI50 [29]: 12.2 µM
TGI [29]: 38.5 µM
GI50 [30]: 18.1 µM
TGI [30]: > 50 µM
GI50 [31]: 5.56 µM
TGI [31]: 22.7 µM
GI50 [32]: 14 µM
TGI [32]: > 35 µM
GI50 [33]: 26.8 µM
TGI [33]: > 50 µM
GI50 [34]: 2.78 µM
TGI [34]: 13.2 µM
GI50 [35]: 12.3 µM
TGI [35]: > 37.5 µM
GI50 [36]: 10.9 µM
TGI [36]: 28.1 µM
GI50 [37]: 21.5 µM
TGI [37]: > 50 µM
GI50 [38]: 2.68 µM
TGI [38]: 7.03 µM
GI50 [39]: 17.5 µM
TGI [39]: > 50 µM
GI50 [40]: 9.63 µM
TGI [40]: 26.6 µM
GI50 [41]: 10 µM
TGI [41]: 24.9 µM
TGI [42]: > 10.1 µM
GI50 [43]: 20.9 µM
TGI [43]: > 50 µM
GI50 [44]: 22.5 µM
TGI [44]: > 50 µM
GI50 [45]: 12.5 µM
TGI [45]: 27.3 µM
GI50 [46]: 7.79 µM
TGI [46]: 16.4 µM
GI50 [47]: 15.9 µM
TGI [47]: > 44.7 µM
GI50 [48]: 12 µM
TGI [48]: 32.4 µM
GI50 [49]: 7.25 µM
TGI [49]: 16 µM
GI50 [50]: 7.99 µM
TGI [50]: 25 µM
GI50 [51]: 21.9 µM
TGI [51]: > 50 µM
GI50 [52]: 9.59 µM
TGI [52]: 27.4 µM
GI50 [53]: 7.85 µM
TGI [53]: 24.1 µM
GI50 [54]: 14.4 µM
TGI [54]: > 50 µM
GI50 [55]: 7.1 µM
TGI [55]: 36.5 µM

C#CCN(Cc1nc2cc(C(F)(F)F)ccc2nc1-c1ccccc1)c1ccc(F)c(F)c1
GI50 [1]: 41.1 µM
TGI [1]: > 100 µM
GI50 [2]: 66.5 µM
TGI [2]: > 100 µM
GI50 [3]: 92.5 µM
TGI [3]: > 100 µM
GI50 [4]: 36.1 µM
TGI [4]: > 100 µM
GI50 [5]: > 100 µM
TGI [5]: > 100 µM
GI50 [7]: 37.4 µM
TGI [7]: > 100 µM
GI50 [8]: 39.9 µM
TGI [8]: > 100 µM
GI50 [9]: 37.8 µM
TGI [9]: > 100 µM
GI50 [10]: 40.5 µM
TGI [10]: 64.9 µM
GI50 [11]: 36 µM
TGI [11]: > 100 µM
GI50 [12]: 22.1 µM
TGI [12]: > 100 µM
GI50 [13]: 42 µM
TGI [13]: > 100 µM
GI50 [14]: 53.1 µM
TGI [14]: > 100 µM
GI50 [15]: > 100 µM
TGI [15]: > 100 µM
GI50 [16]: 19.8 µM
TGI [16]: 82.1 µM
GI50 [17]: 31.6 µM
TGI [17]: > 100 µM
GI50 [18]: 44.5 µM
TGI [18]: > 100 µM
GI50 [19]: 39.4 µM
TGI [19]: > 100 µM
GI50 [20]: > 100 µM
TGI [20]: > 100 µM
GI50 [21]: > 100 µM
TGI [21]: > 100 µM
GI50 [22]: 92.5 µM
TGI [22]: > 100 µM
GI50 [23]: 59.5 µM
TGI [23]: > 100 µM
GI50 [24]: > 100 µM
TGI [24]: > 100 µM
GI50 [25]: 19.1 µM
TGI [25]: 46.2 µM
GI50 [26]: 26 µM
TGI [26]: > 100 µM
GI50 [27]: 29.2 µM
TGI [27]: > 100 µM
GI50 [28]: 78.3 µM
TGI [28]: > 100 µM
GI50 [29]: 22.9 µM
TGI [29]: 92.5 µM
GI50 [30]: 37.3 µM
TGI [30]: > 100 µM
GI50 [31]: > 100 µM
TGI [31]: > 100 µM
GI50 [32]: 13.9 µM
TGI [32]: 61.8 µM
GI50 [33]: > 100 µM
TGI [33]: > 100 µM
GI50 [34]: 22.1 µM
TGI [34]: 82.7 µM
GI50 [35]: 63.5 µM
TGI [35]: > 100 µM
GI50 [36]: 29.4 µM
TGI [36]: > 100 µM
GI50 [37]: > 100 µM
TGI [37]: > 100 µM
GI50 [56]: 39 µM
TGI [56]: > 100 µM
GI50 [38]: 68.1 µM
TGI [38]: > 100 µM
GI50 [40]: 38 µM
TGI [40]: > 100 µM
GI50 [41]: 46.2 µM
TGI [41]: > 100 µM
GI50 [42]: 30.3 µM
TGI [42]: > 100 µM
GI50 [57]: 24 µM
TGI [57]: > 100 µM
GI50 [44]: 17 µM
TGI [44]: 57.2 µM
GI50 [45]: > 100 µM
TGI [45]: > 100 µM
GI50 [46]: 27.5 µM
TGI [46]: > 100 µM
GI50 [47]: 39.7 µM
TGI [47]: > 100 µM
GI50 [48]: 44.8 µM
TGI [48]: 96.9 µM
GI50 [49]: 94.3 µM
TGI [49]: > 100 µM
GI50 [50]: 56.1 µM
TGI [50]: > 100 µM
GI50 [51]: 45.5 µM
TGI [51]: > 100 µM
GI50 [52]: 21.9 µM
TGI [52]: > 100 µM
GI50 [54]: 26.5 µM
TGI [54]: > 100 µM
GI50 [55]: 37.6 µM
TGI [55]: > 100 µM

— PubChem BioAssay (NCI)
